Data taken from patent US9567347B2, “Use of small molecule inhibitors targeting the interaction between RAC GTPase and p67(phox)” (CHILDREN'S HOSPITAL MEDICAL CENTER, priority 2012, dated 2017).

Tests used:
[1] = target: T1, p67^phox recombinant protein (1-200) (Homo sapiens, UniProt P19878); assay: microscale thermophoresis binding to p67phox
T1 construct: using the pET30-HIS p67(1-212) plasmid; His; made in house; host or cells: E. coli BL21(DE3)
T1 sequence (P19878 1-212): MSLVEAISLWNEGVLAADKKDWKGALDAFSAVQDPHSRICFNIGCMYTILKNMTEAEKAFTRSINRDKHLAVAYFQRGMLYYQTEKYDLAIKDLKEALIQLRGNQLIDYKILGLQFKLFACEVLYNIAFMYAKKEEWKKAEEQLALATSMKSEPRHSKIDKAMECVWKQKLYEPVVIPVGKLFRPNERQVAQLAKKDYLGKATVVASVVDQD
Description: The p67^phox protein was expressed in BL21(DE3) bacteria (Stratagene) using the pET30-HIS p67(1-212) plasmid. Protein was purified using the QIAexpress Ni-NTA kit (Qiagen) or the GST Bind Resin Chromatography Kit (Novagen) for RacV12 and RacWT proteins. Mutagenesis was carried out using the Quick Change Lightening Site Directed Mutagenesis Kit (Stratagene).
Proteins were labeled for microscale thermophoresis using the Monolith NT Protein Labeling Kit Red (Nano Temper Technologies) as recommended by the manufacturer. Binding reactions were carried out using the Monolith NT. 115 (Nano Temper Technologies). Binding data was analyzed using Graphpad Prizm to estimate Kd values. The arbitrary fluorescence value from the thermophoresis plots for the smallest compound titration was subtracted from every other data point (Delta depletion) prior to normalization to a Vmax of 100. In thermophoresis plots where there was no binding, a curve could not be fit and therefore no Vmax could be assigned. In these instances the highest delta depletion value was set to 100 and all data were normalized accordingly.
To test the ability of compounds identified by preliminary screening to bind to the p67^phox protein in the N-terminal 200 amino acid region involved in Rac1-GTP interaction, microscale thermophoresis was employed. This technology probes for fluorescent changes in the hydration shell of molecules in order to measure protein-protein or protein small molecule interactions with high sensitivity in near-native conditions.

[2] = target: T2, xanthine oxidase (Bos taurus, UniProt P80457); assay: xanthine/xanthine oxidase assay; assay type: biochemical; settings: 10 μM, 30 min at room temperature
T2 construct: purchased Sigma Aldrich
Description: Chemiluminescence was measured using GloMax®-96 Microplate Luminometer (Promega) (Tarpey et al., (2004) Am J Physiol Regul Integr Comp Physiol 286: R431-R444, hereby incorporated by reference in its entirety). The generation of […] by the xanthine/xanthine oxidase was performed in PBS supplemented with xanthine oxidase (0.004 U), HRP (0.005 U·mL^−1) and L012, following the protocol described in Wind et al., (2010) Br J Pharmacol. 161, 885-898, hereby incorporated by reference in its entirety. The reaction was started by the addition of xanthine (0.5 mM).
To test if the inhibitors are specific for the NOX2 enzyme, a xanthine/xanthine oxidase assay was performed. Specifically, vehicle, NAC (10 mM), […] or Phox-I2 (10 μM) was added to the assay, and incubated for 30 min at room temperature. The results were calculated by taking superoxide production in the absence of inhibitors as 100 and value obtained with NAC, Pghox-I1 or Phox-I2 was expressed as relative %. The data shown in FIG. 6 represent those from three separate experiments.

[3] = test system: dHL-60 cells; assay: antioxidant (ROS scavenger) test in dHL-60 cells pre-stimulated with fMLP; assay type: cell-based, human; settings: fMLP 30 min prior to treatment
Description: (A) Apoptosis analysis by FACS of HL-60 cells treated with compound or vehicle control for 2 hours prior to 7-AAD and Annexin V staining. (B) HL-60 cells from A were harvested and lysates were immunoblotted for levels of pPAK, and actin was used as a control for loading. (C) F-actin reorganization in freshly isolated fMLP-stimulated primary murine neutrophils was analyzed. […] Cells were exposed to a 10 μM dose of Phox-I1, Phox-I2, and Analog 13, and 200 nM nocodazole. (D) The effect of Phox-I on NOX4 mediated ROS production was tested in primary murine neutrophils transfected with a NOX4 expressing plasmid. 10 μM Phox-I1 was applied to the cells for 30 min prior to ROS assay by luminol chemiluminescence in the presence of HRP. The fMLP-stimulated ROS activity in the presence or absence of 10 uM Phox-I1 was measured in parallel. (E) The antioxidant abilities of these lead compounds were tested by prestimulating dHL-60 cells with fMLP for 30 minutes prior to treatment with Phox-I1 or Phox-I2. Levels of superoxide were analyzed by DCFDA assay and FACS. NAC, apocyanin, DPI, and NSC23766 treated cells served as controls. […] (G) For stability assay, DMSO-differentiated HL-60 cells were treated with 20 μM dose of compound for the indicated time period prior to fMLP stimulation and DCFDA ROS production assay by FACS analysis.
Phox-I1 was then applied to primary murine neutrophils expressing the constitutively active NOX4. […] To further rule out that Phox-I1 and Phox-I2 may simply act as scavengers of ROS, dHL-60 cells were pre-stimulated with fMLP for 30 min prior to treatment with Phox-I1 or Phox-I2.

[4] = test system: dHL-60 cells; assay: stability in culture over time, DCFDA ROS assay; assay type: cell-based, human; settings: 20 μM, 6 hr treatment window
Description: (A) Apoptosis analysis by FACS of HL-60 cells treated with compound or vehicle control for 2 hours prior to 7-AAD and Annexin V staining. (B) HL-60 cells from A were harvested and lysates were immunoblotted for levels of pPAK, and actin was used as a control for loading. (C) F-actin reorganization in freshly isolated fMLP-stimulated primary murine neutrophils was analyzed. […] Cells were exposed to a 10 μM dose of Phox-I1, Phox-I2, and Analog 13, and 200 nM nocodazole. (D) The effect of Phox-I on NOX4 mediated ROS production was tested in primary murine neutrophils transfected with a NOX4 expressing plasmid. 10 μM Phox-I1 was applied to the cells for 30 min prior to ROS assay by luminol chemiluminescence in the presence of HRP. The fMLP-stimulated ROS activity in the presence or absence of 10 uM Phox-I1 was measured in parallel. (E) The antioxidant abilities of these lead compounds were tested by prestimulating dHL-60 cells with fMLP for 30 minutes prior to treatment with Phox-I1 or Phox-I2. Levels of superoxide were analyzed by DCFDA assay and FACS. NAC, apocyanin, DPI, and NSC23766 treated cells served as controls. […]

T2 sequence (P80457 2-1332 limits assumed): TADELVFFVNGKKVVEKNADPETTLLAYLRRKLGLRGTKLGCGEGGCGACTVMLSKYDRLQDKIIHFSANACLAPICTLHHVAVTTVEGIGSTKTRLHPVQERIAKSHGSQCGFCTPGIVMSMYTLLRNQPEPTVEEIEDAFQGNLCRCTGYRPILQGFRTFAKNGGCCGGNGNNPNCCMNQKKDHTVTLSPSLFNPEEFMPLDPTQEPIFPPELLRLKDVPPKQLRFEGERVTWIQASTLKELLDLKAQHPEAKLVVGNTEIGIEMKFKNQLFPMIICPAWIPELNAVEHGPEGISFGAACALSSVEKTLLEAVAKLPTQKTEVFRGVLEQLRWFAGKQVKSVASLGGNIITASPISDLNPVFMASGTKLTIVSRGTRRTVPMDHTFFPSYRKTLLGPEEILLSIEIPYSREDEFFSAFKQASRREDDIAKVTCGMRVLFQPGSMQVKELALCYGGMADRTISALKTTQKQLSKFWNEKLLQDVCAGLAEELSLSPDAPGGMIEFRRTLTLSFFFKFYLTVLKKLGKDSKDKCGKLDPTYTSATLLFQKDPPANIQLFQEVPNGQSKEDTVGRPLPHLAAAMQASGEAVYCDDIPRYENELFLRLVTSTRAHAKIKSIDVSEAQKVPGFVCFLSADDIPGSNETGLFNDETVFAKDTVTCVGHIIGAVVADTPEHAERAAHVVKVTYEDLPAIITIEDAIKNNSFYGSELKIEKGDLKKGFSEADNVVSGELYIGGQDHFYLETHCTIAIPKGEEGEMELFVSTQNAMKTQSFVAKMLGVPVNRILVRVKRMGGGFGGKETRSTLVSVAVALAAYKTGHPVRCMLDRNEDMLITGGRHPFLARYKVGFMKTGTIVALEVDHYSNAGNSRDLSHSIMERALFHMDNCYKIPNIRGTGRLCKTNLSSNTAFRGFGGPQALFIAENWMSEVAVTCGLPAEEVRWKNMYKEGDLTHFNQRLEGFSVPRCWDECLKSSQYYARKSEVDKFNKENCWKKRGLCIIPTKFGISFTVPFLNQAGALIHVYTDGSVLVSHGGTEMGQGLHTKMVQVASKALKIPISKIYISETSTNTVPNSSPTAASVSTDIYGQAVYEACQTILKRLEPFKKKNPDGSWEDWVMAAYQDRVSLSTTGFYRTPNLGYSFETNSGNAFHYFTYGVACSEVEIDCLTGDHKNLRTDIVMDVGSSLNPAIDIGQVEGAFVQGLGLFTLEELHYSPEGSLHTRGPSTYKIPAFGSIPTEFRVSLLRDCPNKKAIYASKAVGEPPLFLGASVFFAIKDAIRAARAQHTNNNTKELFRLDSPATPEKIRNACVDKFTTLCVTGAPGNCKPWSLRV

Kd [1] [µM]	binding to p67^phox [1]	xanthine oxidase-mediated ROS production [2]	SMILES	levels of superoxide already produced [3]	efficacy of ROS inhibition over time in culture [4]
~0.15	high affinity	does not affect	O=[N+]([O-])c1cccc(C2Nc3ccc([N+](=O)[O-])cc3C3C=CCC32)c1 (stereo not drawn) [Phox-I2]	do not affect	retained some efficacies
~0.1	–	does not affect	COc1ccc2c(c1)C1C=C(c3ccccc3)NN1C(c1cccc([N+](=O)[O-])c1)O2 (stereo not drawn) [Phox-I1]	do not affect	no significant change in efficacy
